Measurements from patent publication US20130035329A1, “THERAPEUTICALLY ACTIVE COMPOSITIONS AND THEIR METHODS OF USE” (priority 2009, published 2013).

Target: IDH1 R132H (Homo sapiens, UniProt O75874, R132H)
Assay: High Throughput Screening (HTS) for IDH1 R132H inhibitors (resazurin/NADPH fluorescence assay)
Format: biochemical
Conditions: IDH1m
Protocol: A compound described herein may be an inhibitor of IDH1m. […] B refers to an inhibitor of IDH1m with an IC50 between 1 μM and 50 μM. C refers to an inhibitor of IDH1m with an IC50 greater than 50 μM. D refers to a compound wherein an IC50 is not available.
Assays were conducted in a volume of 76 μl assay buffer (150 mM NaCl, 10 mM MgCl2, 20 mM Tris pH 7.5, 0.03% bovine serum albumin) as follows in a standard 384-well plate: To 25 ul of substrate mix (8 uM NADPH, 2 mM aKG), 1 μl of test compound was added in DMSO. The plate was centrifuged briefly, and then 25 μl of enzyme mix was added (0.2 μg/ml ICDH1 R132H) followed by a brief centrifugation and shake at 100 RPM. The reaction was incubated for 50 minutes at room temperature, then 25 μl of detection mix (30 μM resazurin, […]) was added and the mixture further incubated for 5 minutes at room temperature. The conversion of resazurin to resorufine was detected by fluorescent spectroscopy at Ex544 Em590 c/o 590.

[1] = assay similar to Example 1, class symbols

Chain of IDH1 R132H (O75874 whole entry R132H): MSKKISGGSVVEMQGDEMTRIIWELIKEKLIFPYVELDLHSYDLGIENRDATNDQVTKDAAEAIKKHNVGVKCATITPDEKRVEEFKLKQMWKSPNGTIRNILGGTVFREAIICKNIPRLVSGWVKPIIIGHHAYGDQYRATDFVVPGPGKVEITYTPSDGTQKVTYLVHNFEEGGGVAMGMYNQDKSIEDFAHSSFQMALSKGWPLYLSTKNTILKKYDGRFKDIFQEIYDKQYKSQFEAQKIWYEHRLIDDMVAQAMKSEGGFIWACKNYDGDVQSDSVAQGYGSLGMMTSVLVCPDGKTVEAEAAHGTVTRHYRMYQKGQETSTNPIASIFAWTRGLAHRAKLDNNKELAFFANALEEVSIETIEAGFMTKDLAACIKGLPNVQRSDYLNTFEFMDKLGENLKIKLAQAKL

| SMILES | IC50 [1] | IC50 (number printed in Table 1 instead of a class symbol) |
| --- | --- | --- |
| CCCCc1ccc(NS(=O)(=O)c2cc3c(c(C(=O)N4CCN(c5ccccc5OC)CC4)c2)OCCO3)cc1 | 1 to 50 µM | – |
| COc1ccccc1N1CCN(C(=O)c2cc(S(=O)(=O)Nc3ccc(OC(C)C)cc3)ccc2C)CC1 | 1 to 50 µM | – |
| CCCCc1ccc(OC(=O)Nc2ccc(C)c(C(=O)N3CCN(c4ccccc4OC)CC3)c2)cc1 | > 50 µM | – |
| CCCCc1ccc(NS(=O)(=O)c2ccc(C)c(C(=O)N3CCN(c4ccccc4OCC)CC3)c2)cc1 | 1 to 50 µM | – |
| CCCCc1ccc(NS(=O)(=O)c2ccc(N3CCOCC3)c(C(=O)N3CCN(c4ccccc4OC)CC3)c2)cc1 | 1 to 50 µM | – |
| COc1ccc(NS(=O)(=O)c2cccc(C(=O)N3CCCN(c4ccccc4OC)CC3)c2)cc1 | > 50 µM | – |
| CCCCc1ccc(NS(=O)(=O)c2ccc(C)c(C(=O)N3CCN(c4ccccc4C(F)(F)F)CC3)c2)cc1 | 1 to 50 µM | – |
| CC(C)(C)c1ccc(NS(=O)(=O)c2cccc(C(=O)N3CCN(c4ccccc4)CC3)c2)cc1 | 1 to 50 µM | – |
| CCCCc1ccc(NS(=O)(=O)c2ccc(C)c(C(=O)N3CCN(c4ccccc4OC)CC3)c2)c(N(C)C)c1 | 1 to 50 µM | – |
| COc1ccccc1N1CCN(C(=O)c2cc(S(=O)(=O)Nc3ccc(C)c4cc[nH]c34)ccc2C)CC1 | 1 to 50 µM | – |
| COc1ccccc1N1CCN(C(=O)c2cccc(S(=O)(=O)Nc3ccccc3F)c2)CC1 | > 50 µM | – |
| CCCCc1ccc(NS(=O)(=O)c2cccc(C(=O)N3CCN(c4ncc(C(F)(F)F)cc4Cl)CC3)c2)cc1 | 1 to 50 µM | – |
| COc1ccccc1N1CCCN(C(=O)c2cccc(S(=O)(=O)Nc3ccc(Cl)cc3)c2)CC1 | > 50 µM | – |
| CCCCc1ccc(NS(=O)(=O)c2ccc(C)c(C(=O)N3CCN(c4ccc(OC)c(OC)c4)CC3)c2)cc1 | 1 to 50 µM | – |
| O=C(c1cccc(S(=O)(=O)Nc2ccccc2F)c1)N1CCN(c2ccccc2)CC1 | > 50 µM | – |
| CCCCc1ccc(NS(=O)(=O)c2ccc(C)c(C(=O)N3CCCN(c4ccccc4C)CC3)c2)cc1 | 1 to 50 µM | – |

| SMILES | IC50 [1] | IC50 (number printed in Table 1 instead of a class symbol) |
| --- | --- | --- |
| COCCOCOc1ccc(NS(=O)(=O)c2ccc(C)c(C(=O)N3CCN(c4ccccc4OC)CC3)c2)cc1 | 1 to 50 µM | – |
| CCCCc1ccc(NS(=O)(=O)c2ccc(C)c(C(=O)N3CCN(c4ccccc4Br)CC3)c2)cc1 | 1 to 50 µM | – |
| CCCOc1ccc(NS(=O)(=O)c2ccc(C)c(C(=O)N3CCN(c4ccccc4OC)CC3)c2)cc1 | 1 to 50 µM | – |
| COc1ccccc1N1CCCN(C(=O)c2cccc(S(=O)(=O)Nc3ccc(C(C)C)cc3)c2)CC1 | 1 to 50 µM | – |
| CCCCc1ccc(NS(=O)(=O)c2ccc(C)c(C(=O)N3CCN(c4ccccc4OCc4ccccc4)CC3)c2)cc1 | 1 to 50 µM | – |
| CCCCc1ccc(NS(=O)(=O)c2ccc(C)c(C(=O)N3CCN(Cc4ccccc4C)CC3)c2)cc1 | 1 to 50 µM | – |
| CCCCc1ccc(NS(=O)(=O)c2cccc(C(=O)N3CCN(c4ccccn4)CC3)c2)cc1 | 1 to 50 µM | – |
| CCOc1ccc(NS(=O)(=O)c2ccc(C)c(C(=O)N3CCN(c4ccccn4)CC3)c2)cc1 | > 50 µM | – |
| CCOC(=O)COc1ccc(NS(=O)(=O)c2ccc(C)c(C(=O)N3CCN(c4ccccc4OC)CC3)c2)cc1 | 1 to 50 µM | – |
| CCCCc1ccc(NS(=O)(=O)c2ccc(C)c(C(=O)N3CCN(c4c(C)cccc4C)CC3)c2)cc1 | 1 to 50 µM | – |
| COc1ccccc1N1CCN(C(=O)c2cc(S(=O)(=O)Nc3ccc(C(C)(C)C)cc3)ccc2C)CC1 | 1 to 50 µM | – |
| CCCCc1ccc(NS(=O)(=O)c2ccc(C)c(C(=O)N3CCN(c4ccccc4F)CC3)c2)cc1 | 1 to 50 µM | – |
| CCCCc1ccc(NS(=O)(=O)c2ccc(C)c(C(=O)N3CCN(c4ccc(OCCC)cc4)CC3)c2)cc1 | 1 to 50 µM | – |
| CCCCc1ccc(NS(=O)(=O)c2ccc(C)c(C(=O)N3CCN(C(=O)OC(C)C)CC3)c2)cc1 | 1 to 50 µM | – |
| CCCCc1ccc(NS(=O)(=O)c2ccc(C)c(C(=O)N3CCN(Cc4cccc(C)c4)CC3)c2)cc1 | 1 to 50 µM | – |
| C=Cc1ccc(S(=O)(=O)Nc2ccc(CCCC)cc2)cc1C(=O)N1CCN(c2ccccc2OC)CC1 | 1 to 50 µM | – |

Results, then the compound that gave them:

| IC50 [1] | IC50 (number printed in Table 1 instead of a class symbol) | SMILES |
| --- | --- | --- |
| 1 to 50 µM | – | CCCCc1ccc(NS(=O)(=O)c2ccc(C)c(C(=O)N3CCN(C(=O)OCc4ccccc4)CC3)c2)cc1 |
| 1 to 50 µM | – | CCCCc1ccc(NS(=O)(=O)c2ccc(C)c(C(=O)N3CCN(c4ccccc4Oc4ccccc4)CC3)c2)cc1 |
| 1 to 50 µM | – | CCCCc1ccc(C(=O)Nc2ccc(C)c(C(=O)N3CCN(c4ccccc4OC)CC3)c2)cc1 |
| < 1 µM | – | CCCCc1ccc(NS(=O)(=O)c2ccc(C)c(C(=O)N3CCN(c4ccccc4Cl)CC3)c2)cc1 |
| 1 to 50 µM | – | CCCCc1ccc(NS(=O)(=O)c2cc3c(c(C(=O)N4CCN(c5ccccc5OC)CC4)c2)OCCN3)cc1 |
| 1 to 50 µM | – | COc1ccccc1N1CCN(C(=O)c2cc(S(=O)(=O)Nc3cccc4cc[nH]c34)ccc2C)CC1 |
| 1 to 50 µM | – | C#CCc1ccc(S(=O)(=O)Nc2ccc(CCCC)cc2)cc1C(=O)N1CCN(c2ccccc2OC)CC1 |
| > 50 µM | – | COc1ccccc1N1CCN(C(=O)c2cccc(NS(=O)(=O)c3cccc4cccnc34)c2)CC1 |
| > 50 µM | – | COc1ccccc1N1CCN(C(=O)c2cc(S(=O)(=O)Nc3ccccc3)ccc2C)CC1 |
| 1 to 50 µM | – | CCCCc1ccc(NS(=O)(=O)c2ccc(C)c(C(=O)N3CCN(C(=O)c4ccccc4)CC3)c2)cc1 |
| > 50 µM | – | O=C(c1cccc(S(=O)(=O)Nc2ccccc2F)c1)N1CCN(c2ccccn2)CC1 |
| 1 to 50 µM | – | COc1ccccc1N1CCN(C(=O)c2cc(S(=O)(=O)Nc3ccc4[nH]ccc4c3)ccc2C)CC1 |
| 1 to 50 µM | – | CCCCc1ccc(NS(=O)(=O)c2ccc(C)c(C(=O)N3CCN(C(=O)Oc4ccccc4)CC3)c2)cc1 |
| 1 to 50 µM | – | CCCCc1ccc(NS(=O)(=O)c2ccc(C)c(C(=O)N3CCN(c4ccc(OC)c(F)c4)CC3)c2)cc1 |
| 1 to 50 µM | – | CCCCc1ccc(NS(=O)(=O)c2cccc(C(=O)N3CCN(c4ccccc4OC)CC3)c2)c(C(=O)O)c1 |
| 1 to 50 µM | – | CCCCc1ccc(NS(=O)(=O)c2ccc(C)c(C(=O)N3CCN(c4c(Cl)cccc4Cl)CC3)c2)cc1 |
| < 1 µM | – | CCCCc1ccc(NS(=O)(=O)c2ccc(C)c(C(=O)N3CCN(c4ccccc4C)CC3)c2)cc1 |
| 1 to 50 µM | – | CCCc1ccccc1NS(=O)(=O)c1cccc(C(=O)N2CCN(c3ccccc3)CC2)c1 |
| 1 to 50 µM | – | CCCCc1ccc(NS(=O)(=O)c2ccc(Br)c(C(=O)N3CCN(c4ccccc4OC)CC3)c2)cc1 |
| 1 to 50 µM | – | CCCCc1ccc(NS(=O)(=O)c2ccc(C)c(C(=O)N3CCN(c4ccc(OC)cc4OC)CC3)c2)cc1 |
| 1 to 50 µM | – | CCCCc1ccc(NS(=O)(=O)c2ccc(C)c(C(=O)N3CCN(c4ccc(F)cc4)CC3)c2)cc1 |
| 1 to 50 µM | – | COCOc1ccc(NS(=O)(=O)c2ccc(C)c(C(=O)N3CCN(c4ccccc4C)CC3)c2)cc1 |
| > 50 µM | – | Cc1ccc(S(=O)(=O)Nc2ccccc2F)cc1C(=O)N1CCN(c2ccccn2)CC1 |
| 1 to 50 µM | – | CCCCc1ccc(NS(=O)(=O)c2ccc(C)c(C(=O)N3CCN(c4ccccc4OCC4CC4)CC3)c2)cc1 |

| IC50 [1] | IC50 (number printed in Table 1 instead of a class symbol) | SMILES |
| --- | --- | --- |
| 1 to 50 µM | – | COc1ccccc1N1CCN(C(=O)c2cc(S(=O)(=O)Nc3cccc4cccnc34)ccc2C)CC1 |
| > 50 µM | – | COc1ccc(NS(=O)(=O)c2cccc(C(=O)N3CCN(c4ccccc4OC)CC3)c2)cc1 |
| 1 to 50 µM | – | CCCCc1ccc(NS(=O)(=O)c2ccc(C)c(C(=O)N3CCN(c4ccccc4OCCC)CC3)c2)cc1 |
| 1 to 50 µM | – | COc1ccc(NS(=O)(=O)c2ccc(C)c(C(=O)N3CCN(c4ccccc4OC)CC3)c2)cc1 |
| > 50 µM | – | Cc1ccc(S(=O)(=O)Nc2ccc(Cl)cc2)cc1C(=O)N1CCN(c2ccccn2)CC1 |
| 1 to 50 µM | – | COc1ccccc1N1CCCN(C(=O)c2cccc(S(=O)(=O)Nc3ccccc3F)c2)CC1 |
| 1 to 50 µM | – | CCCCc1ccc(NS(=O)(=O)c2ccc(C)c(C(=O)N3CCN(c4ccccc4OC(C)C)CC3)c2)cc1 |
| 1 to 50 µM | – | CCCCc1ccc(NS(=O)(=O)c2ccc(C)c(C(=O)N3CCN(CCc4ccccc4)CC3)c2)cc1 |
| 1 to 50 µM | – | CCCCOc1ccc(NS(=O)(=O)c2ccc(C)c(C(=O)N3CCN(c4ccccc4OC)CC3)c2)c(C)c1C |
| 1 to 50 µM | – | CCCc1ccc(NS(=O)(=O)c2ccc(C)c(C(=O)N3CCN(c4ccccc4OC)CC3)c2)cc1 |
| > 50 µM | – | CCCCc1ccc(NS(=O)(=O)c2ccc(Cl)c(C(=O)N3CCN(C(C)=O)CC3)c2)cc1 |
| 1 to 50 µM | – | CCCCc1ccc(NS(=O)(=O)c2ccc(C)c(C(=O)N3CCN(C(=O)C4CC4)CC3)c2)cc1 |
| 1 to 50 µM | – | CCCCc1ccc(NS(=O)(=O)c2ccc(C)c(C(=O)N3CCN(c4ccccn4)CC3)c2)cc1 |
| 1 to 50 µM | – | COc1ccccc1N1CCN(C(=O)c2cc(S(=O)(=O)Nc3ccc(OCc4nnco4)cc3)ccc2C)CC1 |
| > 50 µM | – | COc1ccc(NS(=O)(=O)c2cccc(C(=O)N3CCN(c4ccccc4)CC3)c2)cc1 |
| 1 to 50 µM | – | CCOC(=O)C(C)Oc1ccc(NS(=O)(=O)c2ccc(C)c(C(=O)N3CCN(c4ccccc4OC)CC3)c2)cc1 (stereo not shown) |
| > 50 µM | – | COc1ccccc1N1CCN(C(=O)c2cc(S(=O)(=O)Nc3ccc(CCN4CCCC4)cc3)ccc2C)CC1 |
| < 1 µM | – | CCCCc1ccc(NS(=O)(=O)c2ccc(C)c(C(=O)N3CCN(c4ccccc4CC)CC3)c2)cc1 |
| 1 to 50 µM | – | CCCCc1ccc(NS(=O)(=O)c2ccc(C)c(C(=O)N3CCN(C(=O)OCC(C)C)CC3)c2)cc1 |
| 1 to 50 µM | – | Cc1ccc(S(=O)(=O)Nc2ccc(C(C)C)cc2)cc1C(=O)N1CCN(c2ccccc2)CC1 |
| 1 to 50 µM | – | CCCCc1ccc(NS(=O)(=O)c2ccc(C)c(C(=O)N3CCN(c4cccc(Cl)c4)CC3)c2)cc1 |
| 1 to 50 µM | – | CCCCOc1ccc(NS(=O)(=O)c2ccc(C)c(C(=O)N3CCN(c4ccccc4OC)CC3)c2)cc1 |
| – | 51 µM | COc1ccc(NS(=O)(=O)c2ccc(C)c(C(=O)N3CCN(c4ccccc4)CC3)c2)cc1 |
